PMC7403980, “Anti-Inflammatory Effects of the Novel PIM Kinase Inhibitor KMU-470 in RAW 264.7 Cells through the TLR4-NF-κB-NLRP3 Pathway” (International Journal of Molecular Sciences, 2020)

Experiments:
BTK (h) = molecular target: T1, BTK (h) (Homo sapiens, UniProt Q06187); assay: Kinase profiling (Eurofins Cerep); format: biochemical; settings: KMU-470 10 μM; ATP at Km
T1 construct: purchased Eurofins Cerep S.A. (kinase profiler service)
Protocol: (§1) To test the specificity of the novel PIM kinase inhibitor KMU-470, a kinase profiler service was conducted by Eurofins Cerep S.A. The screening was performed with 1 and 10 μM of compound and a concentration of ATP at the Km value for each individual kinase and kinase substrate according to Eurofin’s protocols.

Blk (h) = molecular target: T2, Blk (h) (Homo sapiens, UniProt P51451); assay: Kinase profiling (Eurofins Cerep); format: biochemical; settings: ATP at Km
T2 construct: purchased Eurofins Cerep S.A. (kinase profiler service)
Protocol: as §1

Bmx (h) = molecular target: T3, Bmx (h) (Homo sapiens, UniProt P51813); assay: Kinase profiling (Eurofins Cerep); format: biochemical; settings: KMU-470 10 μM; ATP at Km
T3 construct: purchased Eurofins Cerep S.A. (kinase profiler service)
Protocol: as §1

Csrc (h) = molecular target: T4, Csrc (h) (Homo sapiens, UniProt P12931); assay: Kinase profiling (Eurofins Cerep); format: biochemical; settings: KMU-470 10 μM; ATP at Km
T4 construct: purchased Eurofins Cerep S.A. (kinase profiler service)
Protocol: as §1

Fgr (h) = molecular target: T5, Fgr (h) (Homo sapiens, UniProt P09769); assay: Kinase profiling (Eurofins Cerep); format: biochemical; settings: ATP at Km
T5 construct: purchased Eurofins Cerep S.A. (kinase profiler service)
Protocol: as §1

Fyn (h) = molecular target: T6, Fyn (h) (Homo sapiens, UniProt P06241); assay: Kinase profiling (Eurofins Cerep); format: biochemical; settings: ATP at Km
T6 construct: purchased Eurofins Cerep S.A. (kinase profiler service)
Protocol: as §1

Hck (h) = molecular target: T7, Hck (h) (Homo sapiens, UniProt P08631); assay: Kinase profiling (Eurofins Cerep); format: biochemical; settings: KMU-470 10 μM; ATP at Km
T7 construct: purchased Eurofins Cerep S.A. (kinase profiler service)
Protocol: as §1

Itk (h) = molecular target: T8, Itk (h) (Homo sapiens, UniProt Q08881); assay: Kinase profiling (Eurofins Cerep); format: biochemical; settings: ATP at Km
T8 construct: purchased Eurofins Cerep S.A. (kinase profiler service)
Protocol: as §1

JAK1 (h) = molecular target: T9, JAK1 (h) (Homo sapiens, UniProt P23458); assay: Kinase profiling (Eurofins Cerep); format: biochemical; settings: ATP at Km
T9 construct: purchased Eurofins Cerep S.A. (kinase profiler service)
Protocol: as §1

JAK2 (h) = molecular target: T10, JAK2 (h) (Homo sapiens, UniProt O60674); assay: Kinase profiling (Eurofins Cerep); format: biochemical; settings: ATP at Km
T10 construct: purchased Eurofins Cerep S.A. (kinase profiler service)
Protocol: as §1

JAK3 (h) = molecular target: T11, JAK3 (h) (Homo sapiens, UniProt P52333); assay: Kinase profiling (Eurofins Cerep); format: biochemical; settings: ATP at Km
T11 construct: purchased Eurofins Cerep S.A. (kinase profiler service)
Protocol: as §1

JNK1α1 (h) = molecular target: T12, JNK1α1 (h) (Homo sapiens, UniProt P45983); assay: Kinase profiling (Eurofins Cerep); format: biochemical; settings: KMU-470 10 μM; ATP at Km
T12 construct: purchased Eurofins Cerep S.A. (kinase profiler service)
Protocol: as §1

Lck (h) = molecular target: T13, Lck (h) (Homo sapiens, UniProt P06239); assay: Kinase profiling (Eurofins Cerep); format: biochemical; settings: ATP at Km
T13 construct: purchased Eurofins Cerep S.A. (kinase profiler service)
Protocol: as §1

Lyn (h) = molecular target: T14, Lyn (h) (Homo sapiens, UniProt P07948); assay: Kinase profiling (Eurofins Cerep); format: biochemical; settings: ATP at Km
T14 construct: purchased Eurofins Cerep S.A. (kinase profiler service)
Protocol: as §1

MAPK1 (h) = molecular target: T15, MAPK1 (h) (Homo sapiens, UniProt P27361); assay: Kinase profiling (Eurofins Cerep); format: biochemical; settings: ATP at Km
T15 construct: purchased Eurofins Cerep S.A. (kinase profiler service)
Protocol: as §1

Pyk2 (h) = molecular target: T16, Pyk2 (h) (Homo sapiens, UniProt Q14289); assay: Kinase profiling (Eurofins Cerep); format: biochemical; settings: KMU-470 10 μM; ATP at Km
T16 construct: purchased Eurofins Cerep S.A. (kinase profiler service)
Protocol: as §1

SAPK2a (h) = molecular target: T17, SAPK2a (h) (Homo sapiens, UniProt Q16539); assay: Kinase profiling (Eurofins Cerep); format: biochemical; settings: KMU-470 10 μM; ATP at Km
T17 construct: purchased Eurofins Cerep S.A. (kinase profiler service)
Protocol: as §1

Syk (h) = molecular target: T18, Syk (h) (Homo sapiens, UniProt P43405); assay: Kinase profiling (Eurofins Cerep); format: biochemical; settings: ATP at Km
T18 construct: purchased Eurofins Cerep S.A. (kinase profiler service)
Protocol: as §1

TYK2 (h) = molecular target: T19, TYK2 (h) (Homo sapiens, UniProt P29597); assay: Kinase profiling (Eurofins Cerep); format: biochemical; settings: ATP at Km
T19 construct: purchased Eurofins Cerep S.A. (kinase profiler service)
Protocol: as §1

Tec (h) activated = molecular target: T20, Tec (h) activated (Homo sapiens, UniProt P42680); assay: Kinase profiling (Eurofins Cerep); format: biochemical; settings: KMU-470 10 μM; ATP at Km
T20 construct: purchased Eurofins Cerep S.A. (kinase profiler service)
Protocol: as §1

Txk (h) = molecular target: T21, Txk (h) (Homo sapiens, UniProt P42681); assay: Kinase profiling (Eurofins Cerep); format: biochemical; settings: KMU-470 10 μM; ATP at Km
T21 construct: purchased Eurofins Cerep S.A. (kinase profiler service)
Protocol: as §1

Yes (h) = molecular target: T22, Yes (h) (Homo sapiens, UniProt P07947); assay: Kinase profiling (Eurofins Cerep); format: biochemical; settings: ATP at Km
T22 construct: purchased Eurofins Cerep S.A. (kinase profiler service)
Protocol: as §1

ZAP-70 (h) = molecular target: T23, ZAP-70 (h) (Homo sapiens, UniProt P43403); assay: Kinase profiling (Eurofins Cerep); format: biochemical; settings: KMU-470 10 μM; ATP at Km
T23 construct: purchased Eurofins Cerep S.A. (kinase profiler service)
Protocol: as §1

RAW 264.7 cells = assay: Toxicity / cell viability in RAW 264.7 cells (microscopy, trypan blue, XTT); format: cell-based, murine; settings: up to 1 µM, 24 h, trypan blue cell count
Protocol: Figure 3 Inhibitory effect of KMU-470 on LPS-induced NO production and iNOS protein expression, and cell viability in RAW 264.7 cells. (A) The cells were pre-treated with KMU-470 at a concentration of 1 μM for 30 min and then treated with different concentrations of LPS for 24 h. Nitrite in the culture supernatant was collected and evaluated using Griess reagent. Absorbance was measured at 540 nm. *** p < 0.001, ** p < 0.01, * p < 0.05. (B) Cells are pre-treated with two different concentrations of KMU-470 (0.5 μM and 1 μM) for 30 min, followed by treatment with 1 μg/mL LPS for 24 h. β-actin was used as an internal control for Western blot analysis. (C) Image-J program was used to analyze the relative optical density of the iNOS band. (D) Cells were treated with various concentrations of KMU-470 for 24 h. The effects of KMU-470 on cell proliferation and morphological changes were observed by microscopy (X100). (E) The cell proliferation rate was determined by cell count using a trypan blue exclusion assay. *p < 0.05 (F) Effect of KMU-470 on cell viability was measured by XTT assay. *** p < 0.001.
The cell viability assay was performed using a 2,3-bis (2-methoxy-4-nitro-5-sulphonyl)-2H-tetrazolium-5-carboxanilide (XTT) assay (Welgene Inc, Daegu, Korea). […] The optical density (OD) was measured using a microplate reader (BMG Labtech, Ortenberg, Germany) at a 450 nm wavelength. […]

T5 sequence (P09769 whole entry): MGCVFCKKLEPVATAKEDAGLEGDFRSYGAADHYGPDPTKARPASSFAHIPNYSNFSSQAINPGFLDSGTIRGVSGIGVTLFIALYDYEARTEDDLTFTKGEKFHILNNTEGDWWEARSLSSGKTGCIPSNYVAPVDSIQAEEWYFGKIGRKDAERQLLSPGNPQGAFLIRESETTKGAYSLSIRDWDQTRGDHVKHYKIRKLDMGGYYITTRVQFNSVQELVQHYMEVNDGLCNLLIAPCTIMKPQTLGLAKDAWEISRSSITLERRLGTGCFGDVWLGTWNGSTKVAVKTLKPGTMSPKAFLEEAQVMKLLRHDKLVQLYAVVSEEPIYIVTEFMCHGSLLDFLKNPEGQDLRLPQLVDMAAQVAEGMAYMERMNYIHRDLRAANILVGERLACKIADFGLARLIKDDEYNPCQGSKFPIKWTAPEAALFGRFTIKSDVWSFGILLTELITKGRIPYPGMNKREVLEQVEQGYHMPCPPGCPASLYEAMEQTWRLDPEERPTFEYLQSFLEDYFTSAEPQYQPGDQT
T22 sequence (P07947 whole entry): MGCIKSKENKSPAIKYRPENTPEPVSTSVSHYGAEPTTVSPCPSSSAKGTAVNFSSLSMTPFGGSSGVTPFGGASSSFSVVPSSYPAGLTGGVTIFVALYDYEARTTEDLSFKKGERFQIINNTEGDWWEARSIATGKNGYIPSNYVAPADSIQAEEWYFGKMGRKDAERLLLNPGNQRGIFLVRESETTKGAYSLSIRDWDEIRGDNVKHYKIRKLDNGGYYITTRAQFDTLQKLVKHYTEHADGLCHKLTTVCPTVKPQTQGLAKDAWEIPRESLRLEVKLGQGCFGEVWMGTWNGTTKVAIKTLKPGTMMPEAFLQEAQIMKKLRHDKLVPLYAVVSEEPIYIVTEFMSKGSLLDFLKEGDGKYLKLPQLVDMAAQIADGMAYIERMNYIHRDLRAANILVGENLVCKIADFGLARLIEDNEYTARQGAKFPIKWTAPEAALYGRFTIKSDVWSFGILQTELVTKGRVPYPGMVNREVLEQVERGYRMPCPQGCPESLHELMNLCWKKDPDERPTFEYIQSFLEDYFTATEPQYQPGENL
T15 sequence (P27361 2-379 limits assumed): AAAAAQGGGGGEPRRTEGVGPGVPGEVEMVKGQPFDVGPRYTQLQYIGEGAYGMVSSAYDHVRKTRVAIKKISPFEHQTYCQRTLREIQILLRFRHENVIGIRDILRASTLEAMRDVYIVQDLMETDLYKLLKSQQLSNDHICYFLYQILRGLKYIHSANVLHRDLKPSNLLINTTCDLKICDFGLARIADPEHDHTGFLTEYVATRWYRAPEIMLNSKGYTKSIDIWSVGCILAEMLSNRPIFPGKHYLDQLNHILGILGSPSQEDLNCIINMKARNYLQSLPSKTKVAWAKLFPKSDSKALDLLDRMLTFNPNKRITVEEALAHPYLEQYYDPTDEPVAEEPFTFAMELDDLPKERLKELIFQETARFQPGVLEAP
T19 sequence (P29597 whole entry): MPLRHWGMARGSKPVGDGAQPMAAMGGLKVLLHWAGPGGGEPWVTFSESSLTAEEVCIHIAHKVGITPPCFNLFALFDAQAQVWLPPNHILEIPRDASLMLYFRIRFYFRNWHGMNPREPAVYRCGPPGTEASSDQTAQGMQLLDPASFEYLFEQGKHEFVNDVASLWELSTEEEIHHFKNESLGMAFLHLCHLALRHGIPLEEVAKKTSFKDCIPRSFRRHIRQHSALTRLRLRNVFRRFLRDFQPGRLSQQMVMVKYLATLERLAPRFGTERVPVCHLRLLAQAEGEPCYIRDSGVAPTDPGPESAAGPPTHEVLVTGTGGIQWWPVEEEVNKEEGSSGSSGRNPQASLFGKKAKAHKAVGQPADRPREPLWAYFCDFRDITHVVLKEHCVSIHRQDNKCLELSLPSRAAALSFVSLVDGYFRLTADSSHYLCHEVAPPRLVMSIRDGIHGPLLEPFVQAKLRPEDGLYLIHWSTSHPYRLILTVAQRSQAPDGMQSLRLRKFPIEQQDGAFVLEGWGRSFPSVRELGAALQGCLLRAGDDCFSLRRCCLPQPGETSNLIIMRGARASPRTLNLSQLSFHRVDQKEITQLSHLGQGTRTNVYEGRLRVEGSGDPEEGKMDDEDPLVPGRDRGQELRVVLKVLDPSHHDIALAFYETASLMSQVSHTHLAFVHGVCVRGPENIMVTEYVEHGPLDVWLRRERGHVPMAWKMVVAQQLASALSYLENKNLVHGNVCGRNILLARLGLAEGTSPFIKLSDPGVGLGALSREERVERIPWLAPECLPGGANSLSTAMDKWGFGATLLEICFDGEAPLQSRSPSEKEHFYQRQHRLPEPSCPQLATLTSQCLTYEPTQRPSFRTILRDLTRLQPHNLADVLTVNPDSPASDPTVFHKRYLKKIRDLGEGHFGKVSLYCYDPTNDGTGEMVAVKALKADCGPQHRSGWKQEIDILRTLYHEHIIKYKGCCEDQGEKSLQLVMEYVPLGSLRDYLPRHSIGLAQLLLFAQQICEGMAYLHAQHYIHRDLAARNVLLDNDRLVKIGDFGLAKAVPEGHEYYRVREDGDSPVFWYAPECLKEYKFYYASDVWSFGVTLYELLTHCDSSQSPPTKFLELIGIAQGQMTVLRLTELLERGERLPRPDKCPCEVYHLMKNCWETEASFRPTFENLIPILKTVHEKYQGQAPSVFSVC
T14 sequence (P07948 whole entry): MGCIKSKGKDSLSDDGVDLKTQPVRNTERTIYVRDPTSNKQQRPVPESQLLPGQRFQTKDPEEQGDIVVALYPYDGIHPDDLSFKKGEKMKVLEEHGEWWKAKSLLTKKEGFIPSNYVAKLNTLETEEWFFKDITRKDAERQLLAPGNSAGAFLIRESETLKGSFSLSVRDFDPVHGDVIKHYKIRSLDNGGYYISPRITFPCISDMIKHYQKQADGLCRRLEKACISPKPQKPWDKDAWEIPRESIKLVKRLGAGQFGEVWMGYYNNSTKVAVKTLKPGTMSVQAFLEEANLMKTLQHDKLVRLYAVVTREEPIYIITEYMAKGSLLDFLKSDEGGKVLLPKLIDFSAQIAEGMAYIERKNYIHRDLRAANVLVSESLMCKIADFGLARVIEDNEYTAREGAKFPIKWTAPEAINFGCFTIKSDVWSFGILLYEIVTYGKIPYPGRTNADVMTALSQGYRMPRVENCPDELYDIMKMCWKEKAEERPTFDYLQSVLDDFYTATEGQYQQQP
T10 sequence (O60674 whole entry): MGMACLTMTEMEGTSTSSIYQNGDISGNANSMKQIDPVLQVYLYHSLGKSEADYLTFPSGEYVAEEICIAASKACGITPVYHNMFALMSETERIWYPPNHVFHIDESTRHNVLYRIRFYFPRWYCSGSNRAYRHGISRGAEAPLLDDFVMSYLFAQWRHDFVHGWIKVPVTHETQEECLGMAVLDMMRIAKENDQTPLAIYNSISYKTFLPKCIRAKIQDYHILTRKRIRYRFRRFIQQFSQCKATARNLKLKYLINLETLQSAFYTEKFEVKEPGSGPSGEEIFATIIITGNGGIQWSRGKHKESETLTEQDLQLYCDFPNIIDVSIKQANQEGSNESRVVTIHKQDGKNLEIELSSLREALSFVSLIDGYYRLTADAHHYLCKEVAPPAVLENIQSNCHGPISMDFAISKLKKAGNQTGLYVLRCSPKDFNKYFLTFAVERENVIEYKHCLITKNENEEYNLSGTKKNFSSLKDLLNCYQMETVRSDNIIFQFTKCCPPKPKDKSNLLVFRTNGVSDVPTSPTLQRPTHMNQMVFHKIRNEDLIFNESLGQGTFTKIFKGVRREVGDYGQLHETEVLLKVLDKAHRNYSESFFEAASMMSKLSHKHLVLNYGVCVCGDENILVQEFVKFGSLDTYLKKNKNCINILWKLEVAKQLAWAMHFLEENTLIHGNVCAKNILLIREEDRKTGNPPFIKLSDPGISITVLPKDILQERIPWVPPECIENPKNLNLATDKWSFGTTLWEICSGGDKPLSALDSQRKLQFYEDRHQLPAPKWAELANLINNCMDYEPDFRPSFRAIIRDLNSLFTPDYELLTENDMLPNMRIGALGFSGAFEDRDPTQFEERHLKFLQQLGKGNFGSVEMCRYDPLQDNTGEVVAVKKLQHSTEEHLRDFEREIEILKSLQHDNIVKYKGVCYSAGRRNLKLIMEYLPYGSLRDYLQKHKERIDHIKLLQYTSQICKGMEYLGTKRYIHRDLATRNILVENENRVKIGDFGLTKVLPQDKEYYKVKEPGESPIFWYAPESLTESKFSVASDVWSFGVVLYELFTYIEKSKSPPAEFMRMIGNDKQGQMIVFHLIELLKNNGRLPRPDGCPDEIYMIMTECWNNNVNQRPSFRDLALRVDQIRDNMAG
T2 sequence (P51451 whole entry): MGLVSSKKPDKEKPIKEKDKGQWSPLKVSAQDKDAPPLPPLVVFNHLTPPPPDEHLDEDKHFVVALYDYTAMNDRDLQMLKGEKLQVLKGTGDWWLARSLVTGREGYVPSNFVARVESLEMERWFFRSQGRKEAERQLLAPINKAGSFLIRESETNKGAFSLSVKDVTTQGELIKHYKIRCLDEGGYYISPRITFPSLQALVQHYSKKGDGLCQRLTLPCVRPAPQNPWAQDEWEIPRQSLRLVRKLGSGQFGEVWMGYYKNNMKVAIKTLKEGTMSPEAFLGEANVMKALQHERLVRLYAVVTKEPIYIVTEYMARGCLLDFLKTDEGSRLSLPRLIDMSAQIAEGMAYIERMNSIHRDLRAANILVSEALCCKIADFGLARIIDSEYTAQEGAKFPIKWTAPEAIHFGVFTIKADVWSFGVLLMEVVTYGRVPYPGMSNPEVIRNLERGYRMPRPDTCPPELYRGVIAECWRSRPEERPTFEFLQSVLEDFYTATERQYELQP

- Activity (% Control) BTK (h) (BTK (h)): 80 % Control
- Activity (% Control) Blk (h) (Blk (h); KMU-470 1 μM): 53 % Control
- Activity (% Control) Blk (h) (Blk (h); KMU-470 10 μM): 5 % Control
- Activity (% Control) Bmx (h) (Bmx (h)): 47 % Control
- Activity (% Control) Csrc (h) (Csrc (h)): 43 % Control
- Activity (% Control) Fgr (h) (Fgr (h); KMU-470 1 μM): 42 % Control
- Activity (% Control) Fgr (h) (Fgr (h); KMU-470 10 μM): 8 % Control
- Activity (% Control) Fyn (h) (Fyn (h); KMU-470 1 μM): 97 % Control
- Activity (% Control) Fyn (h) (Fyn (h); KMU-470 10 μM): 16 % Control
- Activity (% Control) Hck (h) (Hck (h)): 37 % Control
- Activity (% Control) Itk (h) (Itk (h); KMU-470 1 μM): 75 % Control
- Activity (% Control) Itk (h) (Itk (h); KMU-470 10 μM): 21 % Control
- Activity (% Control) JAK1 (h) (JAK1 (h); KMU-470 1 μM): 61 % Control
- Activity (% Control) JAK1 (h) (JAK1 (h); KMU-470 10 μM): 20 % Control
- Activity (% Control) JAK2 (h) (JAK2 (h); KMU-470 1 μM): 107 % Control
- Activity (% Control) JAK2 (h) (JAK2 (h); KMU-470 10 μM): 23 % Control
- Activity (% Control) JAK3 (h) (JAK3 (h); KMU-470 1 μM): 38 % Control
- Activity (% Control) JAK3 (h) (JAK3 (h); KMU-470 10 μM): 15 % Control
- Activity (% Control) JNK1α1 (h) (JNK1α1 (h)): 34 % Control
- Activity (% Control) Lck (h) (Lck (h); KMU-470 1 μM): 41 % Control
- Activity (% Control) Lck (h) (Lck (h); KMU-470 10 μM): 14 % Control
- Activity (% Control) Lyn (h) (Lyn (h); KMU-470 1 μM): 30 % Control
- Activity (% Control) Lyn (h) (Lyn (h); KMU-470 10 μM): 10 % Control
- Activity (% Control) MAPK1 (h) (MAPK1 (h); KMU-470 1 μM): 6 % Control
- Activity (% Control) MAPK1 (h) (MAPK1 (h); KMU-470 10 μM): −18 % Control
- Activity (% Control) Pyk2 (h) (Pyk2 (h)): 41 % Control
- Activity (% Control) SAPK2a (h) (SAPK2a (h)): 77 % Control
- Activity (% Control) Syk (h) (Syk (h); KMU-470 1 μM): 82 % Control
- Activity (% Control) Syk (h) (Syk (h); KMU-470 10 μM): 21 % Control
- Activity (% Control) TYK2 (h) (TYK2 (h); KMU-470 1 μM): 54 % Control
- Activity (% Control) TYK2 (h) (TYK2 (h); KMU-470 10 μM): 14 % Control
- Activity (% Control) Tec (h) activated (Tec (h) activated): 71 % Control
- Activity (% Control) Txk (h) (Txk (h)): 50 % Control
- Activity (% Control) Yes (h) (Yes (h); KMU-470 1 μM): 22 % Control
- Activity (% Control) Yes (h) (Yes (h); KMU-470 10 μM): −3 % Control
- Activity (% Control) ZAP-70 (h) (ZAP-70 (h)): 100 % Control
Structure (SMILES): CN(C)CCNc1cncc(-c2ccc3c(c2)/C(=C/c2cnc[nH]2)C(=O)N3)n1 [KMU-470, (Z)-3-((1H-Imidazol-5-yl)methylene)-5-(6-((2-(dimethylamino)ethyl)amino)pyrazin-2-yl)indolin-2-one]
- Toxicity in RAW 264.7 cells (RAW 264.7 cells): no toxicity
